Patent publication US9353090B2, “Heterocyclic carboxylic acids as activators of soluble guanylate cyclase” (Boehringer Ingelheim International GmbH, priority 2014, dated 2016)
Converted amounts (≈) assume the structure as drawn.

What was measured:
[1] = target: human soluble guanylate cyclase alpha 1 and beta 1 subunits (sGC) (Homo sapiens (Human), UniProt Q02108+Q02153); experiment: sGC cellular activator assay (cGMP, HTRF), in the presence and absence of 50% human serum; format: cell-based; details: CHO cells stably expressing human sGC alpha 1/beta 1, preincubated with 40 microM ODQ; cGMP by HTRF; Table 2 does not state whether with or without 50% human serum
Method: The sGC cellular activator assay is performed in the presence and absence of 50% human serum (HS) using Chinese hamster ovary cells that have been stably transfected to express the human soluble guanylate cyclase alpha 1 and beta 1 subunits (sGC). Cells are preincubated with 40 microM 1H-[1,2,4]oxadiazolo[4,3-a]quinoxalin-1-one (ODQ), an sGC inhibitor, for one h in buffer containing 0.1% bovine serum albumin and 3-isobutyl-1-methylxanthine (IBMX). Concentration response curves are prepared for test compounds in DMSO. An intermediate dilution of the compounds is performed in either buffer containing IBMX or type AB HS containing IBMX. Diluted compounds are added to cells and they are incubated at room temperature for thirty min. cGMP is measured using a CisBio homogeneous time resolved fluorescence kit and the EC50 is calculated for each compound.
Representative compounds of the present invention were tested for activity the above assay. Preferred compounds have an EC50 of <1,000 nM in the above assay and more preferred compounds have an EC50<200 nM.

[2] = physchem; details: kinetic from dmso stock
Method: Solubility is measured by the following method.
100 uL, 10 mM DMSO stock solution of each compound is prepared in a 96 well plate format. The experiment is done in single determination at 3 pH values (2.2, 4.5 and 6.8). For each pH and one reference, 40 uL of each compound is needed.
McIlvaine pH 2.2: To 2.076 g citric acid monohydrate and 0.043 g Na2HPO4×2H2O add 100 ml deionized water
McIlvaine pH 4.5: To 1.166 g citric acid monohydrate and 1.585 g Na2HPO4×2H2O add 100 ml deionized water
McIlvaine pH 6.8: To 0.476 g citric acid monohydrate and 2.753 g Na2HPO4×2H2O add 100 ml deionized water
With a suitable liquid handling device (Multipette® or a liquid handler) 390 uL of each buffer solution and 10 uL of compound is added to each well of a 96 deep well plate. The plates are covered firmly and shaken for 24 h on an over head shaker (at 54 RPM) at room temperature. The DMSO content in the final buffer is 2.5% v/v.
After 24 h the plates are centrifuged to remove droplets on the lid before opening (for ˜5 min at 2500 RPM).
The filtration is done under vacuum with Millipore 96 well filter plate. Filtrate is collected in a deep well plate and transferred to a suitable plate for UPLC analysis.
The reference plate is prepared by adding 10 uL of compound to 390 uL of 50:50 acetonitrile/water in a 96 deep well plate and transferred to a suitable plate for UPLC analysis. Wells are checked visually for precipitation, any presence noted under comments in reported results.
The samples are measured with UPLC-UV using the chromatographic method described below.
Waters Empower®2 software is used for generating Sample Sets (according to the plate layout), Sample Set Methods and Instrument Methods.
One Sample Set comprises the methods for three 96 well plates (one reference plate and two sample plates, and includes one Sample Set Method and one Instrument Method).
Data Processing and Analysis
The UV chromatograms collected at 254 nm are integrated and processed.
It is assumed that the compound is completely dissolved in the reference solution (50:50 acetonitrile/water)

[3] = Human liver microsome (HLM) metabolic stability assay; format: in vitro ADME; details: human liver microsomes
Method: The 5 time point, high-throughput human liver microsome (HLM) metabolic stability assay is designed to determine in vitro compound metabolism. Compounds are incubated with HLMs at a concentration of 1 uM, at 37° C., for a total of 60 min. The percent of compound remaining at 5, 15, 30, and 60 min is used to calculate the t1/2 (min), CLint (mL/min/kg), CLh (mL/min/kg), and % Qh. The assay is based on a 96-well format and can accommodate up to 92 compounds per plate (n=1).
Using the 96-well multi-channel head, the Biomek FX, equipped with a Peltier heating block/shaker, is programmed to accomplish the following steps: • 1. Pipette 175 uL of 1.15 mg/mL microsomes into each of the 96 conical inserts (Analytical Sales and Products, catalog number 96PL05) that fit into the plate of the Peltier heating block/shaker (the incubation plate) • 2. Add 5 uL of compounds from the assay plate to the microsomes and shake the mixture at 600 rpm at 42.1° C. for 10 min (a setting of 42.1° C. on the Peltier is required for the samples to incubate at 37° C.) • 3. After 10 min, prompt the user to add the NADPH plate to the deck and add 20 uL from the NADPH plate to the incubation plate to start the reaction • 4. Add 215 uL of 100%, cold acetonitrile containing an internal standard(s) to a 0 minute, 5 minute, 15 minute, 30 minute, and 60 minute “quench” plate • 5. At 0 min, 5 min, 15 min, 30 min, and 60 min into the incubation, aspirate 12 uL from the incubation mixture and add it to the quench solution to stop the reaction • 6. Add 185 uL HPLC grade water to each well of the 0, 5, 15, 30 and 60 minute quench plates to dilute compounds to the appropriate concentration for the mass spectrometer
After all time points are collected, the quench plates are sealed with 96-well pierceable plate mats or heat sealing foil and centrifuged at 3000 rpm for 15 min to pellet the microsomes.
The plates are analyzed using LC/MS/MS with electron spray ionization (ESI) and the previously determined MRM transitions. The LC method includes the following parameters:
Using an Excel template in Activitybase, the peak areas corresponding to 5, 15, 30 and 60 min are compared to the peak area at 0 min to calculate the percent of remaining compound using the following equation:
Percent compound remaining=(AUC at Time t min/AUC at Time 0 min)×100 where t=0, 5, 15, 30 or 60 min.
Time (min) is plotted against the natural logarithm (Ln) of the percent compound remaining to determine the slope. The slope is used to calculate t1/2 (min) using the equation, t1/2=0.693/slope.
Clh, Hepatic clearance • Hepatic flow*f(u)*Clint/(hepatic flow+f(u)*Clint)
Qh, % Hepatic blood flow • (Clh/Hepatic flow)*100
Preferred compounds have % Qh values of less than 24.

[4] = pH 2.2, aqueous buffer, Solubility (pH 2.2)
[5] = pH 4.5, aqueous buffer, Solubility (pH 4.5)
[6] = pH 6.8, aqueous buffer, Solubility (pH 6.8)

Sequence of human soluble guanylate cyclase alpha 1 and beta 1 subunits (sGC) (Q02108 whole entry partner): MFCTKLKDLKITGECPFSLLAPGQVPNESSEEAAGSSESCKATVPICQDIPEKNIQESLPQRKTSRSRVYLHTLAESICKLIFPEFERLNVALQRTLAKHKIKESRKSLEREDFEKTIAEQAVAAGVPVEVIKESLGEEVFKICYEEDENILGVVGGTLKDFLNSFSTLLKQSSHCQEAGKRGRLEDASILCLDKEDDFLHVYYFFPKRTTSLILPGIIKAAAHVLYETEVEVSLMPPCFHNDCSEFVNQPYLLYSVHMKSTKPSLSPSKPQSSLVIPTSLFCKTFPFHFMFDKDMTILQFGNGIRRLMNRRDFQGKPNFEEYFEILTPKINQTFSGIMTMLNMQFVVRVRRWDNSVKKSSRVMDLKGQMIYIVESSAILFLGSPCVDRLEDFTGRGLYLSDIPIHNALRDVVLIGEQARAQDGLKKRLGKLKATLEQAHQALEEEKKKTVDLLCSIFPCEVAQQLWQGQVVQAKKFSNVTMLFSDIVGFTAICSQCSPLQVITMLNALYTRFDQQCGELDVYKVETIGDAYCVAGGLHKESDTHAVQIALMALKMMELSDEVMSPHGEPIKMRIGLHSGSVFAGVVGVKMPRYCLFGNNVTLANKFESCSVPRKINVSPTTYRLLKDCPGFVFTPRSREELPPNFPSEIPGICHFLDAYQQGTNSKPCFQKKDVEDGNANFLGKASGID
Sequence of human soluble guanylate cyclase alpha 1 and beta 1 subunits (sGC) (Q02153 whole entry): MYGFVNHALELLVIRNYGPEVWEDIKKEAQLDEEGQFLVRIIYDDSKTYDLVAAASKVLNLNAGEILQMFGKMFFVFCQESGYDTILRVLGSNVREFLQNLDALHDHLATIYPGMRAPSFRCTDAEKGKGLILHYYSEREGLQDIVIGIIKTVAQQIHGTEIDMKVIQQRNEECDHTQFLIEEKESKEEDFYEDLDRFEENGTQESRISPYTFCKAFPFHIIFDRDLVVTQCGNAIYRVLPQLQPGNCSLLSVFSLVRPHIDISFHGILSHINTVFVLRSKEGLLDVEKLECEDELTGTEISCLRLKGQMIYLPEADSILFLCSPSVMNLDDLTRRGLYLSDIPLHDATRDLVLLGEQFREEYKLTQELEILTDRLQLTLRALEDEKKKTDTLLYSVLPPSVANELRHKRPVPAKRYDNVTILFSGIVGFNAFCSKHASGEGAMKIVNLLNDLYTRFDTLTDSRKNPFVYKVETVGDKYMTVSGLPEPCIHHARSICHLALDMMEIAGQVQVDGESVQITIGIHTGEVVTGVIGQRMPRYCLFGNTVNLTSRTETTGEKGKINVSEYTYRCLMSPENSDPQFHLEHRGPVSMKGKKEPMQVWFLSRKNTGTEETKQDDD

Row | EC50 [1] | solubility at 24 h [2, 4] | solubility at 24 h [2, 5] | solubility at 24 h [2, 6] | Metabolic stability (Qh %), % hepatic blood flow [3] | SMILES
1 | 12 nM | 110 µg/mL (≈ 199 µM) | 90 µg/mL (≈ 163 µM) | 33 µg/mL (≈ 59.6 µM) | <24% | Cc1cc(COc2ccccc2-c2cccc(N3CC[C@@]4(C(=O)O)C[C@H]4C3)n2)cc2c1CN(C1CCOCC1)CC2 [Compound 12]
2 | 6 nM | 140 µg/mL (≈ 253 µM) | 120 µg/mL (≈ 217 µM) | 71 µg/mL (≈ 128 µM) | 42% | Cc1cccc(-c2cccc(N3CC[C@@]4(C(=O)O)C[C@H]4C3)n2)c1OCc1ccc2c(c1)CCN(C1CCOCC1)C2 [Compound 13]
3 | 3 nM | 120 µg/mL (≈ 211 µM) | 94 µg/mL (≈ 166 µM) | 53 µg/mL (≈ 93.4 µM) | 61% | Cc1cccc(-c2cccc(N3CC[C@@]4(C(=O)O)C[C@H]4C3)n2)c1OCc1ccc2c(c1C)CCN(C1CCOCC1)C2 [Compound 14]
4 | 2 nM | 110 µg/mL (≈ 194 µM) | 90 µg/mL (≈ 159 µM) | 51 µg/mL (≈ 89.8 µM) | 51% | Cc1cc(COc2c(C)cccc2-c2cccc(N3CC[C@@]4(C(=O)O)C[C@H]4C3)n2)cc2c1CN(C1CCOCC1)CC2 [Compound 15]
5 | 8 nM | 130 µg/mL (≈ 235 µM) | 96 µg/mL (≈ 173 µM) | 41 µg/mL (≈ 74 µM) | 28% | Cc1ccc(OCc2ccc3c(c2)CCN(C2CCOCC2)C3)c(-c2cccc(N3CC[C@@]4(C(=O)O)C[C@H]4C3)n2)c1 [Compound 16]
6 | 22 nM | 100 µg/mL (≈ 190 µM) | 83 µg/mL (≈ 158 µM) | 39 µg/mL (≈ 74.2 µM) | 33% | Cc1ccc(OCc2ccc3c(c2)CCN(C2COC2)C3)c(-c2cccc(N3CC[C@@]4(C(=O)O)C[C@H]4C3)n2)c1 [Compound 17]
7 | 2 nM | 130 µg/mL (≈ 229 µM) | 99 µg/mL (≈ 174 µM) | 38 µg/mL (≈ 66.9 µM) | 34% | Cc1ccc(OCc2ccc3c(c2C)CCN(C2CCOCC2)C3)c(-c2cccc(N3CC[C@@]4(C(=O)O)C[C@H]4C3)n2)c1 [Compound 18]
8 | 8 nM | 110 µg/mL (≈ 204 µM) | 82 µg/mL (≈ 152 µM) | 32 µg/mL (≈ 59.3 µM) | 63% | Cc1ccc(OCc2ccc3c(c2C)CCN(C2COC2)C3)c(-c2cccc(N3CC[C@@]4(C(=O)O)C[C@H]4C3)n2)c1 [Compound 19]
9 | 21 nM | 110 µg/mL (≈ 204 µM) | 96 µg/mL (≈ 178 µM) | 64 µg/mL (≈ 119 µM) | <24% | Cc1cccc(-c2cccc(N3C[C@@H]4C[C@]4(C(=O)O)C3)n2)c1OCc1ccc2c(c1)CCN(C1CCOCC1)C2 [Compound 20]
10 | 11 nM | 120 µg/mL (≈ 217 µM) | 110 µg/mL (≈ 199 µM) | 70 µg/mL (≈ 126 µM) | <24% | Cc1cccc(-c2cccc(N3C[C@@H]4C[C@]4(C(=O)O)C3)n2)c1OCc1ccc2c(c1C)CCN(C1CCOCC1)C2 [Compound 21]
11 | 6 nM | 110 µg/mL (≈ 199 µM) | 90 µg/mL (≈ 163 µM) | 60 µg/mL (≈ 108 µM) | <24% | Cc1cc(COc2c(C)cccc2-c2cccc(N3C[C@@H]4C[C@]4(C(=O)O)C3)n2)cc2c1CN(C1CCOCC1)CC2 [Compound 22]
12 | 6 nM | 100 µg/mL (≈ 190 µM) | 88 µg/mL (≈ 167 µM) | 69 µg/mL (≈ 131 µM) | <24% | Cc1cc(COc2c(C)cccc2-c2cccc(N3C[C@@H]4C[C@]4(C(=O)O)C3)n2)cc2c1CN(C1COC1)CC2 [Compound 23]
13 | 6 nM | 110 µg/mL (≈ 204 µM) | 98 µg/mL (≈ 182 µM) | 69 µg/mL (≈ 128 µM) | <24% | Cc1cc(COc2c(C)cccc2-c2cccc(N3C[C@@H]4C[C@]4(C(=O)O)C3)n2)cc2c1CN(C1CCOC1)CC2 (stereo partly drawn) [Compound 24]
14 | 16 nM | 110 µg/mL (≈ 193 µM) | 95 µg/mL (≈ 167 µM) | 68 µg/mL (≈ 119 µM) | <24% | COc1cc(COc2c(C)cccc2-c2cccc(N3C[C@@H]4C[C@]4(C(=O)O)C3)n2)cc2c1CN(C1CCOCC1)CC2 [Compound 27]
15 | 19 nM | 110 µg/mL (≈ 203 µM) | 90 µg/mL (≈ 166 µM) | 73 µg/mL (≈ 135 µM) | <24% | COc1cc(COc2c(C)cccc2-c2cccc(N3C[C@@H]4C[C@]4(C(=O)O)C3)n2)cc2c1CN(C1COC1)CC2 [Compound 28]
16 | 18 nM | 110 µg/mL (≈ 205 µM) | 76 µg/mL (≈ 142 µM) | 79 µg/mL (≈ 147 µM) | <24% | Cc1cccc(-c2cccc(N3C[C@@H]4C[C@]4(C(=O)O)C3)n2)c1OCc1cc(C#N)c2c(c1)CCN(C1COC1)C2 [Compound 29]
17 | 8 nM | 110 µg/mL (≈ 195 µM) | 84 µg/mL (≈ 149 µM) | 62 µg/mL (≈ 110 µM) | <24% | Cc1cccc(-c2cccc(N3C[C@@H]4C[C@]4(C(=O)O)C3)n2)c1OCc1cc(C#N)c2c(c1)CCN(C1CCOCC1)C2 [Compound 30]
18 | 7 nM | 110 µg/mL (≈ 199 µM) | 95 µg/mL (≈ 172 µM) | 67 µg/mL (≈ 121 µM) | <24% | Cc1cccc(-c2cccc(N3C[C@@H]4C[C@]4(C(=O)O)C3)n2)c1OCc1ccc2c(c1)CCN(C1CCOCC1)CC2 [Compound 31]
19 | 4 nM | 120 µg/mL (≈ 228 µM) | 88 µg/mL (≈ 167 µM) | 50 µg/mL (≈ 95.1 µM) | <24% | Cc1cccc(-c2cccc(N3C[C@@H]4C[C@]4(C(=O)O)C3)n2)c1OCc1ccc2c(c1)CCN(C1COC1)CC2 [Compound 32]
20 | 4 nM | 110 µg/mL (≈ 194 µM) | 93 µg/mL (≈ 164 µM) | 68 µg/mL (≈ 120 µM) | <24% | Cc1cccc(-c2cccc(N3C[C@@H]4C[C@]4(C(=O)O)C3)n2)c1OCc1ccc2c(c1C)CCN(C1CCOCC1)CC2 [Compound 33]
21 | 2 nM | 110 µg/mL (≈ 204 µM) | 97 µg/mL (≈ 180 µM) | 67 µg/mL (≈ 124 µM) | <24% | Cc1cccc(-c2cccc(N3C[C@@H]4C[C@]4(C(=O)O)C3)n2)c1OCc1ccc2c(c1C)CCN(C1COC1)CC2 [Compound 34]
22 | 45 nM | 100 µg/mL (≈ 181 µM) | 93 µg/mL (≈ 168 µM) | 6.4 µg/mL (≈ 11.6 µM) | <24% | Cc1ccc(OCc2ccc3c(c2C)CCN(C2CCOCC2)C3)c(-c2cccc(N3C[C@@H]4C[C@]4(C(=O)O)C3)n2)c1 [Compound 35]
23 | 120 nM | 100 µg/mL (≈ 190 µM) | 84 µg/mL (≈ 160 µM) | 48 µg/mL (≈ 91.3 µM) | <24% | Cc1ccc(OCc2ccc3c(c2C)CCN(C2COC2)C3)c(-c2cccc(N3C[C@@H]4C[C@]4(C(=O)O)C3)n2)c1 [Compound 36]
24 | 299 nM | 100 µg/mL (≈ 181 µM) | 93 µg/mL (≈ 168 µM) | 50 µg/mL (≈ 90.3 µM) | <24% | Cc1ccc(OCc2cc(C)c3c(c2)CCN(C2CCOCC2)C3)c(-c2cccc(N3C[C@@H]4C[C@]4(C(=O)O)C3)n2)c1 [Compound 37]
